# Biological target: SK channel
# Experiment: competitive apamin-binding inhibition assay (same manner as WO02/079189, Experiment 1)
# Details: competitive binding assay against apamin, a selective SK channel blocker; read-out: apamin-binding inhibitory activity (IC50)
smiles,measurement,value
"CCOc1cccc(Cn2ncc3c(N4CCN(C(=O)c5ccc(N(CCN(C)C)C(=O)C6CC6)cc5)CC4)ncnc32)c1 [1-(3-ethoxybenzyl)-4-[4-[4-[N-(cyclopropyl-carbonyl)-N-[2-(dimethylamino)ethyl]amino]benzoyl]piperazin-1-yl]-1H-pyrazolo[3,4-d]pyrimidine]",IC50,50 nM
